Assay results taken from patent US20190330224A1, “ACC INHIBITORS AND USES THEREOF” (Gilead Apollo, LLC, priority 2015, published 2019).
≈ marks a conversion by molar mass, not a printed value.

Tests used:
[1] = molecular target: Human ACC2 (Homo sapiens, UniProt O00763); experiment: In vitro ACC2 inhibition assay (ADP-Glo), human ACC2; assay type: biochemical; conditions: 5 nM ACC2, 20 μM ATP, 20 μM acetyl-CoA
[2] = tested on: C. parapsilosis ATCC 22019; experiment: Anti-Fungal Activity Assay (broth microtiter MIC), C. parapsilosis; assay type: cell-based, Candida parapsilosis; conditions: Lodderomyces parapsilosis, ATCC22019, 48 h, 3 replicates; MIC recorded at 48 h; read-out: MIC C. parapsilosis ATCC 22019
Method in brief: (§1)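 Broth microdilution per CLSI M27-A3 in RPMI 1640+MOPS, inoculum from overnight Sabouraud dextrose agar colonies at 35° C; compounds from 1 mg/mL DMSO stocks. MIC read visually against growth control at 48 h, with an added 24 h reading for soraphen.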

[3] = compound concentration 10 ppm, foliar spray, evaluated 7 days after inoculation
[4] = tested on: C. krusei ATCC 6258; experiment: Anti-Fungal Activity Assay (broth microtiter MIC), C. krusei; assay type: cell-based, Candida krusei; conditions: Pichia kudriavzevii, ATCC6258, 48 h, 3 replicates; MIC recorded at 48 h; read-out: MIC C. krusei ATCC 6258
Method in brief: as §1

[5] = tested on: Phytophthora capsici (Pc); experiment: Growth inhibition assay of fungal pathogens, Pc; assay type: cell-based; conditions: 48 hours, read-out: Concentration at 90% Inhibition, Pc
Method in brief: (§2)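 Spores in 17% V8 medium exposed to compound at final 50, 10, 2 ppm or 2, 0.4, 0.08 ppm, with 2% DMSO. OD600 and visual ratings taken at 24 and 48 h, with blank subtracted. Percent growth inhibition derived from 48 h readings relative to 2% DMSO control.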

[6] = tested on: Fusarium virguliforme (Fv); experiment: Growth inhibition assay of fungal pathogens, Fv; assay type: cell-based; conditions: 48 hours, read-out: Concentration at 90% Inhibition, Fv
Method in brief: as §2

[7] = tested on: Blumeria graminis f sp. hordei; experiment: Foliar protection test, barley powdery mildew control; assay type: in vivo, Blumeria graminis f sp. hordei on Hordeum vulgare cv. Perry; conditions: 168 h, compound concentration 50 ppm, foliar spray, evaluated 7 days after inoculation, read-out: Barley Powdery Mildew Control at 50 ppm
Method in brief: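 Barley cv. Perry at first true leaf (6 days) sprayed to wetness on both leaf sides with compound in 5% acetone/0.005% Tween 80, typically at 200, 100, 50, 10 or 2 ppm. Inoculated 24 h later by shaking spores from colonized plants; kept at 20-22 °C, 70% RH. Mildew colonization scored 7 days later as percent control.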

[8] = tested on: Septoria tritici (St); experiment: Growth inhibition assay of fungal pathogens, St; assay type: cell-based; conditions: Zymoseptoria tritici; 48 hours; read-out: Concentration at 90% Inhibition, St
Method in brief: as §2

[9] = molecular target: Fungal ACC2 (UniProt Q00955); conditions: read-out: Fungal ACC2 (IC50, in vitro ACC2 inhibition)
[10] = tested on: Diplodia maydis (Dm); experiment: Growth inhibition assay of fungal pathogens, Dm; assay type: cell-based; conditions: Stenocarpella maydis; 48 hours; read-out: Concentration at 90% Inhibition, Dm
Method in brief: as §2

[11] = tested on: Botrtyis cinerea (Bc); experiment: Growth inhibition assay of fungal pathogens, Bc; assay type: cell-based; conditions: 48 hours; read-out: Concentration at 90% Inhibition, Bc
Method in brief: as §2

[12] = tested on: Fusarium moniliforme (Fm); experiment: Growth inhibition assay of fungal pathogens, Fm; assay type: cell-based; conditions: Fusarium verticillioides; 48 hours; read-out: Concentration at 90% Inhibition, Fm
Method in brief: as §2

[13] = tested on: Collectotrichum graminicola (Cg); experiment: Growth inhibition assay of fungal pathogens, Cg; assay type: cell-based; conditions: 48 hours; read-out: Concentration at 90% Inhibition, Cg
Method in brief: as §2

[14] = tested on: Rhizoctonia solani (Rs); experiment: Growth inhibition assay of fungal pathogens, Rs; assay type: cell-based; conditions: 48 hours, read-out: Concentration at 90% Inhibition, Rs
[15] = tested on: C. albicans ATCC 90028; experiment: Anti-Fungal Activity Assay (broth microtiter MIC), C. albicans; assay type: cell-based, Candida albicans; conditions: Candida albicans, ATCC90028, 48 h, 3 replicates; MIC recorded at 48 h; read-out: MIC C. albicans ATCC 90028
Method in brief: as §1

Chain of Human ACC2 (O00763 whole entry): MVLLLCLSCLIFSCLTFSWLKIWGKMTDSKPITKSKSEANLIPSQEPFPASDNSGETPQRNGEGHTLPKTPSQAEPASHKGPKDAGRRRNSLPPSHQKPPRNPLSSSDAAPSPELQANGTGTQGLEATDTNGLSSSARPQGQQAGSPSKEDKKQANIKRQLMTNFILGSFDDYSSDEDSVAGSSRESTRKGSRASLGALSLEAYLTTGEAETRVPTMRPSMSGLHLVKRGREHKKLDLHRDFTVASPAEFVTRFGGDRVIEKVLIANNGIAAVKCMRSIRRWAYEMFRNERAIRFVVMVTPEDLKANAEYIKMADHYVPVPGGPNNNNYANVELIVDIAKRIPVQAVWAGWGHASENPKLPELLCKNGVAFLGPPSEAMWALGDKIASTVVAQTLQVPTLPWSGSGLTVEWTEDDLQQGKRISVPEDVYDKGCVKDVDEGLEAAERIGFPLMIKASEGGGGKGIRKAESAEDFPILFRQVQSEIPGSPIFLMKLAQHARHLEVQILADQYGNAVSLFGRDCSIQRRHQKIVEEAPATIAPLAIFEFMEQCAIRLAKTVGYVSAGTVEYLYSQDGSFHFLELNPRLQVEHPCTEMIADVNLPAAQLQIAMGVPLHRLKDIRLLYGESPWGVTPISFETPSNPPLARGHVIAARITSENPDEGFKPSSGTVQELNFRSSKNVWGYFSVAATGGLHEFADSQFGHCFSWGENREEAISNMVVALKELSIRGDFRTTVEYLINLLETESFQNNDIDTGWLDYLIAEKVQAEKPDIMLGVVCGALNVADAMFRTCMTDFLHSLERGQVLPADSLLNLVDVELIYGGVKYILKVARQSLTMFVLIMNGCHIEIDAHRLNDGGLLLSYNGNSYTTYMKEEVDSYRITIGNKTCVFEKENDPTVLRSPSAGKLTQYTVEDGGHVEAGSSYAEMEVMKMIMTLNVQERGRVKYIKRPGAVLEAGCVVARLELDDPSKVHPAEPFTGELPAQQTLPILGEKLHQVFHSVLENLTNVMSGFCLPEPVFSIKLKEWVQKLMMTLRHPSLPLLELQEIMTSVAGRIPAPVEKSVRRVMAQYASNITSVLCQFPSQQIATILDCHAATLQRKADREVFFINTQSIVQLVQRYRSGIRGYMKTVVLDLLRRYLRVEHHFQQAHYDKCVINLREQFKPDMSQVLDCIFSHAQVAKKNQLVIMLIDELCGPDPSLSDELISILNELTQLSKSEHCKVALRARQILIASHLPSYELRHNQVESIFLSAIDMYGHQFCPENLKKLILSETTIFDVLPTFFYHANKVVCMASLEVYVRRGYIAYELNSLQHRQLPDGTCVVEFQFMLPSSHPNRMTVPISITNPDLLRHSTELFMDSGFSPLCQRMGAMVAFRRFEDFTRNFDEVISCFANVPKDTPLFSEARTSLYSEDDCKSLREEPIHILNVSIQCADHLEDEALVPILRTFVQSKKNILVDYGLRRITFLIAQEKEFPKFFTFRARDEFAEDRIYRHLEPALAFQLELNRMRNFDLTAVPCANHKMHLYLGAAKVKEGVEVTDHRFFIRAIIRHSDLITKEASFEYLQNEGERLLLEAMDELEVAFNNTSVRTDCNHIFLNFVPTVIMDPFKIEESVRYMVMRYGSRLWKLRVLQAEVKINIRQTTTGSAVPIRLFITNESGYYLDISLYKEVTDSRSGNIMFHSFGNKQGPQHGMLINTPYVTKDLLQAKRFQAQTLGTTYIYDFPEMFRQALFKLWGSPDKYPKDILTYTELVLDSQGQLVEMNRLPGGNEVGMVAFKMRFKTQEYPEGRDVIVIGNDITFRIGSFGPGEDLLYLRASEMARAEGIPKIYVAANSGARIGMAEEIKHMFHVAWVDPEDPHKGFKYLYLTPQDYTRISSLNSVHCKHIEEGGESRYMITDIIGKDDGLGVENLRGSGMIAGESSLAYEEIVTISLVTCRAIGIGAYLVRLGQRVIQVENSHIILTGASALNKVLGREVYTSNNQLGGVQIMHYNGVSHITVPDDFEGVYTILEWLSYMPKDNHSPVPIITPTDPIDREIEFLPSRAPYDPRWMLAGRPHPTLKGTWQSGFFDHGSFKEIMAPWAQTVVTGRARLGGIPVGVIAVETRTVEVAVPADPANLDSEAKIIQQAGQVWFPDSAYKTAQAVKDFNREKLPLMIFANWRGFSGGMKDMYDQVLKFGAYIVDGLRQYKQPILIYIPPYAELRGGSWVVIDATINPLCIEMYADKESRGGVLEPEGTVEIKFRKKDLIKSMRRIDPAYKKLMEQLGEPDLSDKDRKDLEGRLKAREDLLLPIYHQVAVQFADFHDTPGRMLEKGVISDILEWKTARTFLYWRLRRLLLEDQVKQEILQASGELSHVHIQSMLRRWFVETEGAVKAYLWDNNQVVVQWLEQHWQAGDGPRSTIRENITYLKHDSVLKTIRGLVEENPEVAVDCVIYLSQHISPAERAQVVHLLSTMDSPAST
Chain of Fungal ACC2 (Q00955 whole entry): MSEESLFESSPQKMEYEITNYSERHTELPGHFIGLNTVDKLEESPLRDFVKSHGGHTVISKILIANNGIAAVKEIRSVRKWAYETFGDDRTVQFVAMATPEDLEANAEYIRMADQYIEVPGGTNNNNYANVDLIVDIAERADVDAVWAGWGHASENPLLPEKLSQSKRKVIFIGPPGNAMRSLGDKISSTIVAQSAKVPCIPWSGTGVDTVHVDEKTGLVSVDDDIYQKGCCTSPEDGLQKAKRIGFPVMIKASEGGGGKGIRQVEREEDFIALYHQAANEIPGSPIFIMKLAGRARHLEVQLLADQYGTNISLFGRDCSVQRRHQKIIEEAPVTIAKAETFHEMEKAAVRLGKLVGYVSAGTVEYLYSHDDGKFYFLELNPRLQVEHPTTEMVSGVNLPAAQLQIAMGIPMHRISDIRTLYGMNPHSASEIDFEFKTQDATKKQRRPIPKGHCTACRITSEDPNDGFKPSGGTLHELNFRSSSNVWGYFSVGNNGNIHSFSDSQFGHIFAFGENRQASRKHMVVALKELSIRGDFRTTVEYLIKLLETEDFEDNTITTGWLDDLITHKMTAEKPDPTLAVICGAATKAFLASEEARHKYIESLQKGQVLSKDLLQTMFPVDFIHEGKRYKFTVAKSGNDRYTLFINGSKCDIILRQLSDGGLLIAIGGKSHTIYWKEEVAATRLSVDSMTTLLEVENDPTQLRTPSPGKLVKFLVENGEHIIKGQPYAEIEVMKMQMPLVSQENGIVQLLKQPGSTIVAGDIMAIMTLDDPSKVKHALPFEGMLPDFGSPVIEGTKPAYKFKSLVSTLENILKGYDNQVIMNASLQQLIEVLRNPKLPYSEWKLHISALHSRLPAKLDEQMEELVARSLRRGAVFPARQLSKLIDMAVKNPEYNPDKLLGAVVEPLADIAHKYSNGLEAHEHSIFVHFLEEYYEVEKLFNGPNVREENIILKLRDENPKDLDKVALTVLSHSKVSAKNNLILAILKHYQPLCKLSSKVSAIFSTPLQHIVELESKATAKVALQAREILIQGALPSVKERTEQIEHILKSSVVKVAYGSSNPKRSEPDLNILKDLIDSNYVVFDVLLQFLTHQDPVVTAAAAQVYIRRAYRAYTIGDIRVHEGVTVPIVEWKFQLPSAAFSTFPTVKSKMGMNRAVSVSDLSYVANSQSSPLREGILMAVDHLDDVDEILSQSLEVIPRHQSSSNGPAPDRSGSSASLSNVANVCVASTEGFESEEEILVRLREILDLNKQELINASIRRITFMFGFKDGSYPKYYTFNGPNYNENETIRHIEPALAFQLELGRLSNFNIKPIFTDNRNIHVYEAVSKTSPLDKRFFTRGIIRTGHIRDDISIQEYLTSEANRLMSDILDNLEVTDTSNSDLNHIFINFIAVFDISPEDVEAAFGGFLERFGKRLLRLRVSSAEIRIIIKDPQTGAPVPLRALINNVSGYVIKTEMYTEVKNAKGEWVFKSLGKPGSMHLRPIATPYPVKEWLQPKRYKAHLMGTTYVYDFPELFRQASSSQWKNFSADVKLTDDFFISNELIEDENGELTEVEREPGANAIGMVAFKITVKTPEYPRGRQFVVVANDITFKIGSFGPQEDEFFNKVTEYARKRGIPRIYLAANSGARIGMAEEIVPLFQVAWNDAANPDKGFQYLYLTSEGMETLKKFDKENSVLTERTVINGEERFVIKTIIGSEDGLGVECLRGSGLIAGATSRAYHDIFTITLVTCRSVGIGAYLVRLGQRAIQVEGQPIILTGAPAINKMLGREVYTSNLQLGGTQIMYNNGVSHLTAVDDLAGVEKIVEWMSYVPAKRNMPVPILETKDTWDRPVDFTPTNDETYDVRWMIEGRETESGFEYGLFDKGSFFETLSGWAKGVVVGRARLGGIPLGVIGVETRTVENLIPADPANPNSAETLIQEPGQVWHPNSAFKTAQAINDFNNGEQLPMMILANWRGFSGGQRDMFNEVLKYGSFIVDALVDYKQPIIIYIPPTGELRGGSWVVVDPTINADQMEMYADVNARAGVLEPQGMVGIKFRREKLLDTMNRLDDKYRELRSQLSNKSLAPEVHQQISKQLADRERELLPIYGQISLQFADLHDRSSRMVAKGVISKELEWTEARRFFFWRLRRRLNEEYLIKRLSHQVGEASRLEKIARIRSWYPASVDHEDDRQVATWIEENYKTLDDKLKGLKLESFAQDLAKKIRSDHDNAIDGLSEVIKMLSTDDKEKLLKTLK

COc1ccc(F)cc1[C@H](Cn1c(=O)n([C@H]2CCN(C)C2=O)c(=O)c2c(C)c(-n3nccn3)sc21)OCCO [Compound I-82, 1-((R)-2-(5-fluoro-2-methoxyphenyl)-2-(2-hydroxy-ethoxy)ethyl)-5-methyl-3-((S)-1-methyl-2-oxopyrrolidin-3-yl)-6-(2H-1,2,3-triazol-2-yl)thieno[2,3-d]pyrimidine-2,4(1H,3H)-dione]
IC50 [1]: 2 to 10 nM
MIC [2]: 2.1 to 4 µg/mL (≈ 3.76 to 7.16 µM)
Barley Powdery Mildew Control at 10 ppm [3]: D (provided a compound having <25% control of barley powdery mildew)
MIC [4]: 2.1 to 4 µg/mL (≈ 3.76 to 7.16 µM)
IC90 [5]: > 50 µg/mL
IC90 [6]: 2 µg/mL (≈ 3.58 µM)
pest or weed control at 50 ppm [7]: 25 to 49%
IC90 [8]: > 50 µg/mL
IC50 [9]: 0.7 to 2 nM
IC90 [10]: 10 µg/mL (≈ 17.9 µM)
IC90 [11]: 2 µg/mL (≈ 3.58 µM)
IC90 [12]: 2 µg/mL (≈ 3.58 µM)
IC90 [13]: 10 µg/mL (≈ 17.9 µM)
IC90 [14]: 2 µg/mL (≈ 3.58 µM)
MIC [15]: 2.1 to 4 µg/mL (≈ 3.76 to 7.16 µM)

COc1ccc(F)cc1[C@H](Cn1c(=O)n([C@@H]2CCN(C)C2=O)c(=O)c2c(C)c(-n3nccn3)sc21)OCCO [Compound I-83, 1-((R)-2-(5-fluoro-2-methoxyphenyl)-2-(2-hydroxy-ethoxy)ethyl)-5-methyl-3-((R)-1-methyl-2-oxopyrrolidin-3-yl)-6-(2H-1,2,3-triazol-2-yl)thieno[2,3-d]pyrimidine-2,4(1H,3H)-dione]
IC50 [1]: 2 to 10 nM
MIC [2]: 2.1 to 4 µg/mL (≈ 3.76 to 7.16 µM)
Barley Powdery Mildew Control at 10 ppm [3]: D (provided a compound having <25% control of barley powdery mildew)
MIC [4]: 2.1 to 4 µg/mL (≈ 3.76 to 7.16 µM)
IC90 [5]: > 50 µg/mL
IC90 [6]: 10 µg/mL (≈ 17.9 µM)
pest or weed control at 50 ppm [7]: 70 to 84%
IC90 [8]: > 50 µg/mL
IC50 [9]: 0.7 to 2 nM
IC90 [10]: 10 µg/mL (≈ 17.9 µM)
IC90 [11]: 2 µg/mL (≈ 3.58 µM)
IC90 [12]: 2 µg/mL (≈ 3.58 µM)
IC90 [13]: 2 µg/mL (≈ 3.58 µM)
IC90 [14]: 2 µg/mL (≈ 3.58 µM)
MIC [15]: 2.1 to 4 µg/mL (≈ 3.76 to 7.16 µM)

COc1ccc(F)cc1[C@H](Cn1c(=O)n([C@H]2CCNC2=O)c(=O)c2c(C)c(-n3nccn3)sc21)OCCC#N [Compound I-106, 3-((R)-1-(5-fluoro-2-methoxyphenyl)-2-(5-methyl-2,4-dioxo-3-((S)-2-oxopyrrolidin-3-yl)-6-(2H-1,2,3-triazol-2-yl)-3,4-dihydrothieno[2,3-d]pyrimidin-1(2H)-yl)ethoxy)propanenitrile]
IC50 [1]: 10 to 100 nM
MIC [2]: 2.1 to 4 µg/mL (≈ 3.79 to 7.23 µM)
Barley Powdery Mildew Control at 10 ppm [3]: D (provided a compound having <25% control of barley powdery mildew)
MIC [4]: 2.1 to 4 µg/mL (≈ 3.79 to 7.23 µM)
IC90 [5]: > 50 µg/mL
IC90 [6]: 10 µg/mL (≈ 18.1 µM)
pest or weed control at 50 ppm [7]: 25 to 49%
IC90 [8]: > 50 µg/mL
IC50 [9]: 0.7 to 2 nM
IC90 [10]: > 50 µg/mL
IC90 [11]: 2 µg/mL (≈ 3.61 µM)
IC90 [12]: 2 µg/mL (≈ 3.61 µM)
IC90 [13]: > 50 µg/mL
IC90 [14]: 2 µg/mL (≈ 3.61 µM)
MIC [15]: 2.1 to 4 µg/mL (≈ 3.79 to 7.23 µM)

COc1ccc(F)cc1[C@H](Cn1c(=O)n([C@H]2CCCNC2=O)c(=O)c2c(C)c(-n3nccn3)sc21)OCCC#N [Compound I-110, 3-((R)-1-(5-fluoro-2-methoxyphenyl)-2-(5-methyl-2,4-dioxo-3-((S)-2-oxopiperidin-3-yl)-6-(2H-1,2,3-triazol-2-yl)-3,4-dihydrothieno[2,3-d]pyrimidin-1 (2H)-yl)ethoxy)propanenitrile]
IC50 [1]: 10 to 100 nM
MIC [2]: 2.1 to 4 µg/mL (≈ 3.7 to 7.05 µM)
Barley Powdery Mildew Control at 10 ppm [3]: D (provided a compound having <25% control of barley powdery mildew)
MIC [4]: 2.1 to 4 µg/mL (≈ 3.7 to 7.05 µM)
IC90 [5]: > 50 µg/mL
IC90 [6]: 10 µg/mL (≈ 17.6 µM)
pest or weed control at 50 ppm [7]: 50 to 69%
IC90 [8]: > 50 µg/mL
IC50 [9]: 0.7 to 2 nM
IC90 [10]: > 50 µg/mL
IC90 [11]: 2 µg/mL (≈ 3.52 µM)
IC90 [12]: 2 µg/mL (≈ 3.52 µM)
IC90 [13]: 10 µg/mL (≈ 17.6 µM)
IC90 [14]: 2 µg/mL (≈ 3.52 µM)
MIC [15]: 2.1 to 4 µg/mL (≈ 3.7 to 7.05 µM)
